From ChEMBL document CHEMBL3120109, “Discovery of Thienoimidazole-Based HCV NS5A Genotype 1a and 1b Inhibitors” (ACS Med Chem Lett, 2014)
pEC50: −log10 of the molar value.

How the values were obtained:
Hepatitis C virus [1] = test: Antiviral activity against Hepatitis C virus genotype 1b infected in human Huh-5.2 cells assessed as decrease in HCV replicon RNA replication after 4 days by luciferase assay; assay type: functional, organism-based, Hepacivirus hominis; settings: Huh-5-2, 96 h
Hepatitis C virus [2] = test: Antiviral activity against Hepatitis C virus genotype 1a infected in W11.8 cells assessed as decrease in NS5A expression in replicon cell after 4 days by luminescence based ELISA; assay type: functional, organism-based, Hepacivirus hominis; settings: subtype 1a, W11.8, 96 h
[3] = Cytotoxicity against human HuhET cells by [3H]thymidine incorporation assay; assay type: cell-based
[4] = Ratio of EC50 for Hepatitis C virus genotype 1a infected in W11.8 cells to EC50 for Hepatitis C virus genotype 1b infected in human Huh-5.2 cells; assay type: functional
[5] = Clearance in rat at 3 mg/kg, iv; assay type: ADME, organism-based; parameters: dose 3 mg/kg, route intravenous; settings: in vivo
Hepatitis C virus [6] = test: Ratio of EC50 for Hepatitis C virus genotype 1a harboring NS5A Y93C mutant gene to EC50 for Hepatitis C virus genotype 1a harboring wild type NS5A; assay type: functional, Hepacivirus hominis, subtype 1a
[7] = Metabolic stability in rat liver microsomes assessed as intact compound level at 5 uM after 1 hr; assay type: ADME; settings: read-out: Stability
[8] = Metabolic stability in human liver microsomes assessed as intact compound level at 5 uM after 1 hr; assay type: ADME; settings: read-out: Stability
[9] = AUC (0 to 8 hrs) in rat at 3 mg/kg, po; assay type: ADME, organism-based; parameters: time < 8 hr, dose 3 mg/kg, route oral; settings: plasma
Hepatitis C virus [10] = test: Ratio of EC50 for Hepatitis C virus genotype 1b harboring NS5A Y93H mutant gene to EC50 for Hepatitis C virus genotype 1b harboring wild type NS5A; assay type: functional, Hepacivirus hominis
[11] = Efflux ratio of permeability from basolateral to apical over apical to basolateral side in human Caco2 cells; assay type: ADME, cell-based; settings: Caco-2
Hepatitis C virus [12] = test: Ratio of EC50 for Hepatitis C virus genotype 1a harboring NS5A Q30R mutant gene to EC50 for Hepatitis C virus genotype 1a harboring wild type NS5A; assay type: functional, Hepacivirus hominis, subtype 1a
[13] = Half life in rat at 3 mg/kg, po; assay type: ADME, organism-based; parameters: dose 3 mg/kg, route oral; settings: in vivo
[14] = Half life in rat at 3 mg/kg, iv; assay type: ADME, organism-based; parameters: dose 3 mg/kg, route intravenous; settings: in vivo
[15] = Volume of distribution at steady state in rat at 3 mg/kg, iv; assay type: ADME, organism-based; parameters: dose 3 mg/kg, route intravenous; settings: in vivo, read-out: Vdss
[16] = Oral bioavailability in rat at 3 mg/kg; assay type: ADME, organism-based; settings: in vivo
Hepatitis C virus [17] = test: Ratio of EC50 for Hepatitis C virus genotype 1a harboring NS5A M28T mutant gene to EC50 for Hepatitis C virus genotype 1a harboring wild type NS5A; assay type: functional, Hepacivirus hominis, subtype 1a
Hepatitis C virus [18] = test: Ratio of EC50 for Hepatitis C virus genotype 1a harboring NS5A Y93H mutant gene to EC50 for Hepatitis C virus genotype 1a harboring wild type NS5A; assay type: functional, Hepacivirus hominis, subtype 1a

## COC(=O)N[C@H](C(=O)N1C[C@@H](C)C[C@H]1c1ncc(-c2ccc(-c3ccc(-c4cc5[nH]c([C@@H]6C[C@H](C)CN6C(=O)[C@@H](NC(=O)OC)C(C)C)nc5s4)cc3)c(C)c2)[nH]1)C(C)C
Hepatitis C virus [1]
  pEC50: 11.70
Hepatitis C virus [2]
  pEC50: 10.21
[3]
  CC50: > 20000 nM
[4]
  Ratio EC50: 31

## COC(=O)N[C@H](C(=O)N1C[C@@H](C)C[C@H]1c1ncc(-c2ccc(-c3ccc(-c4cc5[nH]c([C@@H]6C[C@H](C)CN6C(=O)[C@@H](NC(=O)OC)C(C)C)nc5s4)cc3)cc2)[nH]1)C(C)C
Hepatitis C virus [1]
  pEC50: 11.10
Hepatitis C virus [2]
  pEC50: 10.77
[5]
  clearance: 5.3 mL/min/kg
Hepatitis C virus [6]
  Ratio EC50: >15000
[7]
  remaining at 1 h, 5 µM: 91%
[8]
  remaining at 1 h, 5 µM: 100%
[9]
  AUC(0-t) at 8 h: 1540 ng·h/mL
Hepatitis C virus [10]
  Ratio EC50: 900
[11]
  efflux ratio: 2
Hepatitis C virus [12]
  Ratio EC50: >500
[3]
  CC50: > 20000 nM
[13]
  half-life: 8.3 h
[14]
  half-life: 6.1 h
[15]
  Vd: 2.4 L/kg
[4]
  Ratio EC50: 2
[16]
  bioavailability: 25.6%
Hepatitis C virus [17]
  Ratio EC50: >500
Hepatitis C virus [18]
  Ratio EC50: >15000

## COC(=O)N[C@H](C(=O)N1C[C@@H](C)C[C@H]1c1nc2cc(-c3ccc(-c4cc5[nH]c([C@@H]6C[C@H](C)CN6C(=O)[C@@H](NC(=O)OC)C(C)C)nc5s4)cc3)ccc2[nH]1)C(C)C
Hepatitis C virus [1]
  pEC50: 11.30
Hepatitis C virus [2]
  pEC50: 9.21
[3]
  CC50: > 20000 nM

## COC(=O)N[C@H](C(=O)N1C[C@@H](C)C[C@H]1c1nc2cc(/C=C/c3ccc(-c4cc5[nH]c([C@@H]6C[C@H](C)CN6C(=O)[C@@H](NC(=O)OC)C(C)C)nc5s4)cc3)ccc2[nH]1)C(C)C
Hepatitis C virus [1]
  pEC50: 11.40
Hepatitis C virus [2]
  pEC50: 10.42
[5]
  clearance: 6 mL/min/kg
[9]
  AUC(0-t) at 8 h: 820 ng·h/mL
[3]
  CC50: > 20000 nM
[13]
  half-life: 5 h
[14]
  half-life: 6.6 h
[15]
  Vd: 2.7 L/kg
[16]
  bioavailability: 14.1%

## COC(=O)N[C@H](C(=O)N1C[C@@H](C)C[C@H]1c1ncc(-c2ccc(-c3ccc(-c4cc5[nH]c([C@@H]6C[C@H](C)CN6C(=O)[C@@H](NC(=O)OC)C(C)C)nc5s4)cc3)cc2F)[nH]1)C(C)C
Hepatitis C virus [1]
  pEC50: 11.52
Hepatitis C virus [2]
  pEC50: 10.15
[3]
  CC50: > 20000 nM

## COC(=O)N[C@H](C(=O)N1C[C@@H](C)C[C@H]1c1ncc(-c2cccc(-c3ccc(-c4cc5[nH]c([C@@H]6C[C@H](C)CN6C(=O)[C@@H](NC(=O)OC)C(C)C)nc5s4)cc3)c2)[nH]1)C(C)C
Hepatitis C virus [1]
  pEC50: 11.15
Hepatitis C virus [2]
  pEC50: 8.12
[5]
  clearance: 13.5 mL/min/kg
[9]
  AUC(0-t) at 8 h: 490 ng·h/mL
[3]
  CC50: > 20000 nM
[13]
  half-life: 5.1 h
[14]
  half-life: 5.1 h
[15]
  Vd: 4.8 L/kg
[4]
  Ratio EC50: 1071
[16]
  bioavailability: 16%

## COC(=O)N[C@H](C(=O)N1C[C@@H](C)C[C@H]1c1ncc(C#Cc2ccc(-c3ccc(-c4cc5[nH]c([C@@H]6C[C@H](C)CN6C(=O)[C@@H](NC(=O)OC)C(C)C)nc5s4)cc3)cc2)[nH]1)C(C)C
Hepatitis C virus [1]
  pEC50: 11.00
Hepatitis C virus [2]
  pEC50: 8.95
[3]
  CC50: > 20000 nM
[4]
  Ratio EC50: 112

## COC(=O)N[C@H](C(=O)N1C[C@@H](C)C[C@H]1c1nc2cc(-c3ccc(-c4ccc(-c5cc6[nH]c([C@@H]7C[C@H](C)CN7C(=O)[C@@H](NC(=O)OC)C(C)C)nc6s5)cc4)cc3)ccc2[nH]1)C(C)C
Hepatitis C virus [1]
  pEC50: 10.62
Hepatitis C virus [2]
  pEC50: 9.21
[3]
  CC50: > 20000 nM

## COC(=O)N[C@H](C(=O)N1C[C@@H](C)C[C@H]1c1nc2cc(C#Cc3ccc(-c4cc5[nH]c([C@@H]6C[C@H](C)CN6C(=O)[C@@H](NC(=O)OC)C(C)C)nc5s4)cc3)ccc2[nH]1)C(C)C
Hepatitis C virus [1]
  pEC50: 11.40
Hepatitis C virus [2]
  pEC50: 9.75
[3]
  CC50: > 20000 nM

## COC(=O)N[C@H](C(=O)N1C[C@@H](C)C[C@H]1c1ncc(-c2ccc(-c3ccc(-c4cc5[nH]c([C@@H]6C[C@H](C)CN6C(=O)[C@@H](NC(=O)OC)C(C)C)nc5s4)cc3)c(F)c2)[nH]1)C(C)C
Hepatitis C virus [1]
  pEC50: 10.89
Hepatitis C virus [2]
  pEC50: 9.63
[3]
  CC50: 3100 nM
[4]
  Ratio EC50: 18

## COC(=O)N[C@H](C(=O)N1C[C@@H](C)C[C@H]1c1ncc(-c2csc3ccc(-c4ccc(-c5cc6[nH]c([C@@H]7C[C@H](C)CN7C(=O)[C@@H](NC(=O)OC)C(C)C)nc6s5)cc4)cc23)[nH]1)C(C)C
Hepatitis C virus [1]
  pEC50: 8.17
Hepatitis C virus [2]
  pEC50: < 7.00
[3]
  CC50: 16400 nM

## COC(=O)N[C@H](C(=O)N1C[C@@H](C)C[C@H]1c1ncc(-c2ccc(-c3ccc(-c4cc5[nH]c([C@@H]6C[C@H](C)CN6C(=O)[C@@H](NC(=O)OC)C(C)C)nc5s4)cc3)cc2C)[nH]1)C(C)C
Hepatitis C virus [1]
  pEC50: 11.30
Hepatitis C virus [2]
  pEC50: 9.94
[3]
  CC50: > 20000 nM
[4]
  Ratio EC50: 23

## COC(=O)N[C@H](C(=O)N1CCC[C@H]1c1ncc(-c2ccc(-c3ccc(-c4cnc([C@@H]5CCCN5C(=O)[C@@H](NC(=O)OC)C(C)C)[nH]4)cc3)cc2)[nH]1)C(C)C [DACLATASVIR]
Hepatitis C virus [2]
  pEC50: 10.30

## COC(=O)N[C@H](C(=O)N1C[C@@H](C)C[C@H]1c1ncc(-c2ccc(-c3ccc(-c4cc5[nH]c([C@@H]6C[C@H](C)CN6C(=O)[C@@H](NC(=O)OC)C(C)C)nc5s4)cc3)s2)[nH]1)C(C)C
Hepatitis C virus [1]
  pEC50: 11.15
Hepatitis C virus [2]
  pEC50: 10.47
[3]
  CC50: 18300 nM
[4]
  Ratio EC50: 5

## COC(=O)N[C@H](C(=O)N1C[C@@H](C)C[C@H]1c1ncc(-c2cc3sc(-c4ccc(-c5cc6[nH]c([C@@H]7C[C@H](C)CN7C(=O)[C@@H](NC(=O)OC)C(C)C)nc6s5)cc4)cc3s2)[nH]1)C(C)C
Hepatitis C virus [1]
  pEC50: 10.85
Hepatitis C virus [2]
  pEC50: 10.27
[5]
  clearance: 5.1 mL/min/kg
[9]
  AUC(0-t) at 8 h: 460 ng·h/mL
[3]
  CC50: > 20000 nM
[13]
  half-life: 10.8 h
[14]
  half-life: 5.1 h
[15]
  Vd: 2 L/kg
[4]
  Ratio EC50: 3.8
[16]
  bioavailability: 6.7%

## COC(=O)N[C@H](C(=O)N1C[C@@H](C)C[C@H]1c1ncc(C#Cc2ccc(-c3cc4[nH]c([C@@H]5C[C@H](C)CN5C(=O)[C@@H](NC(=O)OC)C(C)C)nc4s3)cc2)[nH]1)C(C)C
Hepatitis C virus [1]
  pEC50: 9.62
Hepatitis C virus [2]
  pEC50: 7.92
[3]
  CC50: > 20000 nM
[4]
  Ratio EC50: 50
